ChEMBL document CHEMBL5649169 (ChemMedChem, 2018)

How the values were obtained:
Vinculin (Homo sapiens) = Vinculin (Homo sapiens) (UniProt P18206)
[1] = biological target: Metal cation symporter ZIP14 (Homo sapiens) (UniProt Q15043)
[2] = biological target: Transketolase (Homo sapiens) (UniProt P29401)
[3] = biological target: Tripeptidyl-peptidase 1 (Homo sapiens) (UniProt O14773)
[4] = biological target: ER lumen protein-retaining receptor 2 (Homo sapiens) (UniProt P33947)
[5] = biological target: ATPase family AAA domain-containing protein 3B (Homo sapiens) (UniProt Q5T9A4)
[6] = biological target: Tropomyosin alpha-3 chain (Homo sapiens) (UniProt P06753)
[7] = biological target: 116 kDa U5 small nuclear ribonucleoprotein component (Homo sapiens) (UniProt Q15029)
[8] = biological target: Serine/arginine-rich splicing factor 6 (Homo sapiens) (UniProt Q13247)
[9] = biological target: Calcium/calmodulin-dependent protein kinase type II subunit beta (Homo sapiens) (UniProt Q13554)
[10] = biological target: RNA cytidine acetyltransferase (Homo sapiens) (UniProt Q9H0A0)
[11] = biological target: Transportin-3 (Homo sapiens) (UniProt Q9Y5L0)
[12] = biological target: Alanine--tRNA ligase, cytoplasmic (Homo sapiens) (UniProt P49588)
[13] = biological target: Rho-associated protein kinase 2 (Homo sapiens) (UniProt O75116)
[14] = biological target: Serine/threonine-protein kinase ICK (Homo sapiens) (UniProt Q9UPZ9)
[15] = biological target: AP2-associated protein kinase 1 (Homo sapiens) (UniProt Q2M2I8)
[16] = biological target: ATP-binding cassette sub-family D member 3 (Homo sapiens) (UniProt P28288)
[17] = biological target: Cyclin-dependent kinase 17 (Homo sapiens) (UniProt Q00537)
[18] = biological target: Large ribosomal subunit protein eL8 (Homo sapiens) (UniProt P62424)
[19] = biological target: Chloride intracellular channel protein 1 (Homo sapiens) (UniProt O00299)
[20] = biological target: Sideroflexin-1 (Homo sapiens) (UniProt Q9H9B4)
[21] = biological target: Heterogeneous nuclear ribonucleoproteins C1/C2 (Homo sapiens) (UniProt P07910)
Homo sapiens [22] = species: Homo sapiens
[23] = biological target: Cytochrome c oxidase subunit 2 (Homo sapiens) (UniProt P00403)
[24] = biological target: Protein RRP5 homolog (Homo sapiens) (UniProt Q14690)
[25] = biological target: Serine/threonine-protein kinase 4 (Homo sapiens) (UniProt Q13043)
[26] = biological target: Calpain-1 catalytic subunit (Homo sapiens) (UniProt P07384)
[27] = biological target: RNA-binding protein RO60 (Homo sapiens) (UniProt P10155)
Homo sapiens [28] = species: Homo sapiens; remark: listed apart in the source
[29] = biological target: Alpha-actinin-4 (Homo sapiens) (UniProt O43707)
[30] = biological target: Large ribosomal subunit protein eL38 (Homo sapiens) (UniProt P63173)
[31] = biological target: Serine/threonine-protein kinase/endoribonuclease IRE1 (Homo sapiens) (UniProt O75460)
[32] = biological target: Aurora kinase A (Homo sapiens) (UniProt O14965)
[33] = biological target: Serine/threonine-protein kinase 3 (Homo sapiens) (UniProt Q13188)
[34] = biological target: GPI-anchor transamidase component PIGS (Homo sapiens) (UniProt Q96S52)
[35] = biological target: Acidic leucine-rich nuclear phosphoprotein 32 family member A (Homo sapiens) (UniProt P39687)
[36] = biological target: Bone morphogenetic protein receptor type-2 (Homo sapiens) (UniProt Q13873)
[37] = biological target: Acyl-CoA dehydrogenase family member 10 (Homo sapiens) (UniProt Q6JQN1)
[38] = biological target: Poly(U)-binding-splicing factor PUF60 (Homo sapiens) (UniProt Q9UHX1)
[39] = biological target: Flap endonuclease 1 (Homo sapiens) (UniProt P39748)
[40] = biological target: Protein disulfide-isomerase (Homo sapiens) (UniProt P07237)
[41] = biological target: Dihydrolipoyl dehydrogenase, mitochondrial (Homo sapiens) (UniProt P09622)
[42] = biological target: Stathmin-2 (Homo sapiens) (UniProt Q93045)
[43] = biological target: NBAS subunit of NRZ tethering complex (Homo sapiens) (UniProt A2RRP1)
[44] = biological target: 14-3-3 protein epsilon (Homo sapiens) (UniProt P62258)
[45] = biological target: Signal recognition particle 9 kDa protein (Homo sapiens) (UniProt P49458)
[46] = biological target: Dynein light chain 1, cytoplasmic (Homo sapiens) (UniProt P63167)
Peflin (Homo sapiens) = Peflin (Homo sapiens) (UniProt Q9UBV8)
Also: assay method not described here.

Sequence of Rho-associated protein kinase 2 (Homo sapiens) (O75116 whole entry, looked up): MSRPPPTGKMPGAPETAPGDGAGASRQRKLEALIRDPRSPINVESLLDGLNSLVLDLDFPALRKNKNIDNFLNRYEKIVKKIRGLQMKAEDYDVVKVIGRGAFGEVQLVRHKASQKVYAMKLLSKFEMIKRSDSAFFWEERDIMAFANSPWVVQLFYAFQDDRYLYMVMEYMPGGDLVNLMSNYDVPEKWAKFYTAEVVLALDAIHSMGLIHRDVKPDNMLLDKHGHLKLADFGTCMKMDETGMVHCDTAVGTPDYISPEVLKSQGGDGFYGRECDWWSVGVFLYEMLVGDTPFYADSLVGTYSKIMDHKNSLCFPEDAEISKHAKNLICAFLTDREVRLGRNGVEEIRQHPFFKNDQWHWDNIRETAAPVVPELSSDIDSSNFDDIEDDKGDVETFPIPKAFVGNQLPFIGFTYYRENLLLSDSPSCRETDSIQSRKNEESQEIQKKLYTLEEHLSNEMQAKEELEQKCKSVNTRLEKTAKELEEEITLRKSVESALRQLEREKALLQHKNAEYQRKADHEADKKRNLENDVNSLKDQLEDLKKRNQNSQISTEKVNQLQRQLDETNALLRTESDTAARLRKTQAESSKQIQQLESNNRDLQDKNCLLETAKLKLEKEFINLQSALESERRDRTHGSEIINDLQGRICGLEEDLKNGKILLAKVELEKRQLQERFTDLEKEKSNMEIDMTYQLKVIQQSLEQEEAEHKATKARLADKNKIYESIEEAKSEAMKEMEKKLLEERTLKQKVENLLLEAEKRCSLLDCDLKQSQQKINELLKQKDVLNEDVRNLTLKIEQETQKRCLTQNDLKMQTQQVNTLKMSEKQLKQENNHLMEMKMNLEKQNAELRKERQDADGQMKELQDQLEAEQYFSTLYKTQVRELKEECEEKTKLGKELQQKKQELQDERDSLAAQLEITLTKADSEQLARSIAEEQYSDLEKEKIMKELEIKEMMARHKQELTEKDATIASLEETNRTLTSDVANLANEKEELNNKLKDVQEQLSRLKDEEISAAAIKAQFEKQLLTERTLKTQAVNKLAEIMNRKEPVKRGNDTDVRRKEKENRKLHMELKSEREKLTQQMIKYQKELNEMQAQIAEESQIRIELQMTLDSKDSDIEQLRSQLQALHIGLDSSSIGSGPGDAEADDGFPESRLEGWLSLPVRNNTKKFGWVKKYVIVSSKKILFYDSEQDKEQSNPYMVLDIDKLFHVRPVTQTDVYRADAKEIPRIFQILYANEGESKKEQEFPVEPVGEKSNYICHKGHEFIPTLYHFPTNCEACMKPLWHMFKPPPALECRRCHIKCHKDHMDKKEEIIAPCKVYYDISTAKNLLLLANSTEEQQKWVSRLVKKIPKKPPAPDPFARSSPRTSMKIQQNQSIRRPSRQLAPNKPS
Sequence of Calcium/calmodulin-dependent protein kinase type II subunit beta (Homo sapiens) (Q13554 whole entry): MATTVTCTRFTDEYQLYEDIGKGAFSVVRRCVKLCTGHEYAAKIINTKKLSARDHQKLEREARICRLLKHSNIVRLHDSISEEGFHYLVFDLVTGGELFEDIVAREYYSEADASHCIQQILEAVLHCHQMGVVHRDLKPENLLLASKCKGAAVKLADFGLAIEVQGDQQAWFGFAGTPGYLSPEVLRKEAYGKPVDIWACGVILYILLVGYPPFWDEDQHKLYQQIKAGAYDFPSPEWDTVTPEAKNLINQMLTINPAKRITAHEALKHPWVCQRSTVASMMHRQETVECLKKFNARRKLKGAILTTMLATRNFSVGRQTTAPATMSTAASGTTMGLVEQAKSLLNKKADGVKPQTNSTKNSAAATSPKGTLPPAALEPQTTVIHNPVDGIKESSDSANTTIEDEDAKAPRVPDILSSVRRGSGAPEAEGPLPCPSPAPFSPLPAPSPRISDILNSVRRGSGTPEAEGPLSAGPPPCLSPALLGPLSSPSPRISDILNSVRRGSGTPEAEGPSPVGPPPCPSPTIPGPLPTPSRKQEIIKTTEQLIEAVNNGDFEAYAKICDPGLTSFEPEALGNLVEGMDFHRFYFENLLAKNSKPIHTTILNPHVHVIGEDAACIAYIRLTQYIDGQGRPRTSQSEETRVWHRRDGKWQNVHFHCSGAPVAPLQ
Sequence of Serine/arginine-rich splicing factor 6 (Homo sapiens) (Q13247 whole entry, looked up): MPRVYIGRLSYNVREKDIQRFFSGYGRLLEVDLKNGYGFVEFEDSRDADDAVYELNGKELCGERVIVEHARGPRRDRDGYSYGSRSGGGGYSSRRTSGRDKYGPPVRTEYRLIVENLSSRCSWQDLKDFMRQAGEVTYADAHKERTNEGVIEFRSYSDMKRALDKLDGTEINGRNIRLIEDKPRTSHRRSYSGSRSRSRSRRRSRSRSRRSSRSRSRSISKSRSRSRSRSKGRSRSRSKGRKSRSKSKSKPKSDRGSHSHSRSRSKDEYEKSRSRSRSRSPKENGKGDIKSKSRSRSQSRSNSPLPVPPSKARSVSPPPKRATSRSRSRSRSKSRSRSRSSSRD
Sequence of 116 kDa U5 small nuclear ribonucleoprotein component (Homo sapiens) (Q15029 whole entry): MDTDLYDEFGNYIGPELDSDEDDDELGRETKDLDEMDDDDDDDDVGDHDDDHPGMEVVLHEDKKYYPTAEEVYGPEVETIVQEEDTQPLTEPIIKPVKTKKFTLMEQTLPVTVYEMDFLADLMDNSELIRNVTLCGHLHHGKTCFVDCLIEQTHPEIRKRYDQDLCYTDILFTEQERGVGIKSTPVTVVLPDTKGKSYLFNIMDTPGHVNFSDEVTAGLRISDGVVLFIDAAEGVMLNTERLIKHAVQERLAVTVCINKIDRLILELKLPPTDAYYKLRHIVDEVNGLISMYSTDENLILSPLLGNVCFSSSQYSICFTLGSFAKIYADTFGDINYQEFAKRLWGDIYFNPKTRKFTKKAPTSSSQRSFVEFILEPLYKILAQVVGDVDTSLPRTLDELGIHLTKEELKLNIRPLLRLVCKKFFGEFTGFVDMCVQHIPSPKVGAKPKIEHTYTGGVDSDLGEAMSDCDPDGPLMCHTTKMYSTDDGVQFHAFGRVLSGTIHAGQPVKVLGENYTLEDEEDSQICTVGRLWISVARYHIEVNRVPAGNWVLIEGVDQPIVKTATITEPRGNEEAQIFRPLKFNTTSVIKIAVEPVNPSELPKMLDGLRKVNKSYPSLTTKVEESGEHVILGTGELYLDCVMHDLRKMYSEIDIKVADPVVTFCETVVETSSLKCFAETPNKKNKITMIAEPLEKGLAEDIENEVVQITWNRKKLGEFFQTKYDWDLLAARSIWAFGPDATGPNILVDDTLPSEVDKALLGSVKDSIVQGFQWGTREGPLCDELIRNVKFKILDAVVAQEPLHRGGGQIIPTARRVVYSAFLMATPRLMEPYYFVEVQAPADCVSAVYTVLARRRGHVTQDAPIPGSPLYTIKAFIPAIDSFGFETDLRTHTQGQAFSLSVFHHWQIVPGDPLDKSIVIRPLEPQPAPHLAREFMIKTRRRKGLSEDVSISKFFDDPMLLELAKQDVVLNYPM
Sequence of RNA cytidine acetyltransferase (Homo sapiens) (Q9H0A0 whole entry): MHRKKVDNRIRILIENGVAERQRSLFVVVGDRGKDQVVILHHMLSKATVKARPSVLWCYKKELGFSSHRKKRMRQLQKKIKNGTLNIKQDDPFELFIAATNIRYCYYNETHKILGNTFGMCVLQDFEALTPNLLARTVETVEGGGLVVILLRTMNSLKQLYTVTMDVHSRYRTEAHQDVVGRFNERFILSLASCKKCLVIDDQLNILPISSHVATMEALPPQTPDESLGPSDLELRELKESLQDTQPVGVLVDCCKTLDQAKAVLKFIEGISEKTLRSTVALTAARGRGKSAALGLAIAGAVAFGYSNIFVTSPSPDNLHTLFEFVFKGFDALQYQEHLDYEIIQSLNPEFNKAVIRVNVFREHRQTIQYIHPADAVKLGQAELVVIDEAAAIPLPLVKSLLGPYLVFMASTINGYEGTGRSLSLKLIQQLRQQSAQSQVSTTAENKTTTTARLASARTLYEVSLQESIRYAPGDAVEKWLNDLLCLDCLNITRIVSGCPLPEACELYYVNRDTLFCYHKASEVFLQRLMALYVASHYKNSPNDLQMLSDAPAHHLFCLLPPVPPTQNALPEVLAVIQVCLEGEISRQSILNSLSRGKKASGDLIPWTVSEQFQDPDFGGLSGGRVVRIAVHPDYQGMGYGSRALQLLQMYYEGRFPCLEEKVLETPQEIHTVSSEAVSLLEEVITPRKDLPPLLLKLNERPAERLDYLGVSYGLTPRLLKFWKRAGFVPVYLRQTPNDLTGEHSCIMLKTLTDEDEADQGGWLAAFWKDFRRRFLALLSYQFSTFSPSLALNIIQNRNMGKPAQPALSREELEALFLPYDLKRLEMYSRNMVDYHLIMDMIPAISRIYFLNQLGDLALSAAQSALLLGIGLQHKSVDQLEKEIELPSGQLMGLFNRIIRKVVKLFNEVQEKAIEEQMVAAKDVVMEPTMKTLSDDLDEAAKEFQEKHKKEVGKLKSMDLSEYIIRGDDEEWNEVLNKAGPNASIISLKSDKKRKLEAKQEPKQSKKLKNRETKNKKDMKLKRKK
Sequence of Poly(U)-binding-splicing factor PUF60 (Homo sapiens) (Q9UHX1 whole entry): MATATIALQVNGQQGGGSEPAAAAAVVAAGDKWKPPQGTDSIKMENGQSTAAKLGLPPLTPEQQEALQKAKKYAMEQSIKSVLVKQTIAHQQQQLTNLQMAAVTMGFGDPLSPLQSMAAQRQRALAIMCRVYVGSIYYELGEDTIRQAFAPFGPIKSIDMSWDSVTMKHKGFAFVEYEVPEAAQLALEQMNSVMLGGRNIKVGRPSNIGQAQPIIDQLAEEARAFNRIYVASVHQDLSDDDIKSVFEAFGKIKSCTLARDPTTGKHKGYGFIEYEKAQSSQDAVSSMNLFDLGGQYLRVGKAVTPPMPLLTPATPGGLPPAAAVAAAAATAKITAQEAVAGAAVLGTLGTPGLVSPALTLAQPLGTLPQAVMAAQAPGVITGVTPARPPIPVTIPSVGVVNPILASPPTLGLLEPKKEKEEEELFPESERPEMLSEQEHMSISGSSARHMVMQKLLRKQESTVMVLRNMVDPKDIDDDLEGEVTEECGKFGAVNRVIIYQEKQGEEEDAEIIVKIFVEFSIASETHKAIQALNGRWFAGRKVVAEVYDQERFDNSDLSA
Sequence of Signal recognition particle 9 kDa protein (Homo sapiens) (P49458 whole entry): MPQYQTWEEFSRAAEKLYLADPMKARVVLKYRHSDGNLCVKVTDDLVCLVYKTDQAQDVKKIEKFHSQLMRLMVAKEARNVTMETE

SMILES: Cc1ccc(C(=O)Nc2cccc(C(F)(F)F)c2)cc1Nc1nc(-c2cccnc2)nc2c1cnn2C
- ED50 (Vinculin (Homo sapiens)): 0.359 µM
- ED50 [1]: 0.00337 µM
- ED50 [2]: 0.167 µM
- ED50 [3]: 3.39 µM
- ED50 [4]: 0.109 µM
- ED50 [5]: 0.0809 µM
- ED50 [6]: 5.57 µM
- ED50 [7]: 0.108 µM
- ED50 [8]: 5.98 µM
- ED50 [9]: 17.4 µM
- ED50 [10]: 0.000302 µM
- ED50 [11]: 19 µM
- ED50 [12]: 0.00373 µM
- ED50 [13]: 0.0201 µM
- ED50 [14]: 0.0433 µM
- ED50 [15]: 6.19 µM
- ED50 [16]: 2.02 µM
- ED50 [17]: 13.1 µM
- ED50 [18]: 2.57 µM
- ED50 [19]: 14.3 µM
- ED50 [20]: 3.47 µM
- ED50 [21]: 0.127 µM
- ED50 (Homo sapiens [22]): 70 µM
- ED50 [23]: 0.449 µM
- ED50 [24]: 0.0339 µM
- ED50 [25]: 2.73 µM
- ED50 [26]: 3.52 µM
- ED50 [27]: 2.18 µM
- ED50 (Homo sapiens [28]): 0.0833 µM
- ED50 [29]: 4.01 µM
- ED50 [30]: 8.36 µM
- ED50 [31]: 0.00529 µM
- ED50 [32]: 6.29 µM
- ED50 [33]: 14.2 µM
- ED50 [34]: 0.0298 µM
- ED50 [35]: 2.29 µM
- ED50 [36]: 3.02 µM
- ED50 [37]: 11.5 µM
- ED50 [38]: 11 µM
- ED50 [39]: 8.96 µM
- ED50 [40]: 4.25 µM
- ED50 [41]: 11.1 µM
- ED50 [42]: 0.00439 µM
- ED50 [43]: 0.0417 µM
- ED50 [44]: 6.15 µM
- ED50 [45]: 5.32 µM
- ED50 [46]: 0.0155 µM
- ED50 (Peflin (Homo sapiens)): 6.52 µM

SMILES: Cc1ccc(C(=O)Nc2cccc(C(F)(F)F)c2)cc1Nc1nc(-c2cccnc2)nc2nn(C)cc12
- ED50 (Vinculin (Homo sapiens)): 68.1 µM
- ED50 [1]: 3.03 µM
- ED50 [2]: 0.151 µM
- ED50 [3]: 5310 µM
- ED50 [4]: 0.051 µM
- ED50 [5]: 0.0188 µM
- ED50 [6]: 18.9 µM
- ED50 [7]: 0.0593 µM
- ED50 [8]: 32.5 µM
- ED50 [9]: 0.0059 µM
- ED50 [10]: 0.235 µM
- ED50 [11]: 0.669 µM
- ED50 [12]: 36.5 µM
- ED50 [13]: 0.432 µM
- ED50 [14]: 0.0292 µM
- ED50 [15]: 1560 µM
- ED50 [16]: 0.0289 µM
- ED50 [17]: 0.121 µM
- ED50 [18]: 9.78 µM
- ED50 [19]: 20.9 µM
- ED50 [20]: 0.012 µM
- ED50 [21]: 7.54 µM
- ED50 (Homo sapiens [22]): 17.7 µM
- ED50 [23]: 0.153 µM
- ED50 [24]: 0.0717 µM
- ED50 [25]: 0.0498 µM
- ED50 [26]: 0.161 µM
- ED50 [27]: 0.0205 µM
- ED50 (Homo sapiens [28]): 21400 µM
- ED50 [29]: 0.12 µM
- ED50 [30]: 0.0274 µM
- ED50 [31]: 1.92 µM
- ED50 [32]: 9.32 µM
- ED50 [33]: 9.32 µM
- ED50 [34]: 0.255 µM
- ED50 [35]: 12.4 µM
- ED50 [36]: 0.0175 µM
- ED50 [37]: 0.434 µM
- ED50 [38]: 0.00583 µM
- ED50 [39]: 1.02 µM
- ED50 [40]: 11.7 µM
- ED50 [41]: 10.8 µM
- ED50 [42]: 10.5 µM
- ED50 [43]: 22.4 µM
- ED50 [44]: 0.0477 µM
- ED50 [45]: 2440 µM
- ED50 [46]: 5.16 µM
- ED50 (Peflin (Homo sapiens)): 10.8 µM
